Laboratory results as given in a melting point compilation (Tetko et al.; mined from patent text by program, amines drawn as free bases though some values may be those of a salt).

| melting point [°C] | Structure (SMILES) |
| --- | --- |
| 195 to 196 | CC(C)(O)CNC(=O)CC1CN=C(c2cc3cc(Oc4ccc(S(C)(=O)=O)nc4)cc(OC4CCOCC4)c3[nH]2)S1 (stereo not given) |
| 153 to 155 | O=C(O)CCC12CCCn3c1c(c1ccccc13)CCO2 (stereo not given) |
| 174 to 176 | O=C(OCC1OC(OC(=O)C2CCCCC2)C(OC(=O)C2CCCCC2)C(OC(=O)C2CCCCC2)C1OC(=O)C1CCCCC1)C1CCCCC1 (stereo not given) |
| 78 to 80 | CC(c1ccc(C(F)(F)F)nc1)S(C)=NC#N (stereo not given) |
| 121 to 122 | CCOC(=O)NCCC(c1cc(F)ccc1F)S(=O)(=O)c1ccc(Cl)cc1 (stereo not given) |
| 65 to 67 | OCCCCC=CCCc1ccc(OCc2ccccc2)cc1 |
| 138 to 140 | COC=C(C(=O)OC)c1ccccc1CON=C(C)c1nn(C)c2cc(OCC3CC3(Cl)Cl)c(F)cc12 (stereo not given) |
| 56 | S=C(Oc1ccccc1)c1ccccc1 |
| 163 to 166 | CCN(CCCc1ccccc1)[C@H]1CC[C@H](c2ccc(O)cc2)CC1 |
| > 275 | Cc1ccc(C(=O)Nc2nc(-c3ccccc3)c(-c3nc4ccccc4c(=O)n3-c3ccccc3)s2)cc1 |
| 290 to 300 | N#Cc1c[nH]c2ccccc2c1=O |
| 52 to 54 | CSc1ccc(C2=C(Br)CCC2)cc1 |
| 168 to 169 | CCOCc1nc2c(N)nc3cc(-n4ccnc4)ccc3c2n1CCCOC |
| 145 to 154 | COc1c(Cl)ccc(Cl)c1C(=O)NOCC(=O)O |
| 248 to 249 | N#Cc1ccc(CCC(=O)c2c(O)c3cccnc3n(-c3ccccc3)c2=O)cc1 |
| 92 to 94 | COc1ccccc1-c1ccn(C(C)C(=O)N(C)C)n1 (stereo not given) |
| 87 to 88 | Fc1ccc(C(Cl)(Cn2cncn2)C(F)(F)F)c(F)c1 (stereo not given) |
| 86 to 87 | O=S(=O)(Nc1ccc(Cl)cc1C(=NOc1ccc(Cl)cc1)c1ccccc1)C(F)(F)F |
| 221 to 223 | COCc1c(OC)cc(Cc2cnc(N)nc2N)cc1OC |
| 79 to 80 | CC1(C)OC(C=Cc2ccsc2)=CC1=O |
| 173 to 175 | CCOC(=O)Cc1cc2c(s1)CCN(C(=O)[C@H](Cc1ccccc1)NC(=O)c1ccc(C(=N)N)cc1)C2 |
| 72 | O=C(O)COc1ccc(OCc2ccccc2)cc1OCc1ccccc1 |
| > 270 | Cc1c(C#N)ccc2nc(N)nc(N)c12 |
| 109 to 110 | O=c1oc2ncccc2n1CCBr |
| 267 to 269 | Cc1cccc(C)c1-n1cc(C#N)c(=O)[nH]c1=O |

| melting point [°C] | Structure (SMILES) |
| --- | --- |
| 185 to 190 | Cn1c(C(F)(F)F)cc(=O)n(-c2ccc(O)cc2F)c1=O |
| > 250 | COc1cc(NC(=O)C(C#N)=CNc2ccsc2)c(Cl)cc1Cl |
| 224 to 227 | CCOc1cc2c3c(cccc3c1)C(=O)N(O)C2=O |
| 114 to 116 | CCOC(=O)c1cnc(CC)nc1NCc1ccc(-c2ccccc2-c2nnn[nH]2)cc1 |
| 103 to 104 | COC(=O)CCc1ccc(OCC(C)NCC(O)c2ccccc2)cc1 (stereo not given) |
| 112 | CNC(=O)C1CN(CCCC(c2ccc(F)cc2)c2ccc(F)cc2)CCN1CC(=O)Nc1c(C)cc(N)cc1C (stereo not given) |
| 128 to 130 | CCOc1nn(-c2cc(C(F)(F)F)ccn2)cc1CCCOc1cccc(CC(=O)O)c1 |
| 157 to 158 | CCOc1ccc(-c2ccc3c(c2)C=C(C(=O)OC)CCN3)cc1 |
| 63 to 65 | CCOC(=O)c1ccc(OCCCCCCc2cccc(OCc3ccccc3)c2OCc2ccccc2)cc1 |
| 101 to 103 | CC(CCc1ccc(F)cc1)NCc1c(CO)ccc(O)c1CO (stereo not given) |
| 132 to 135 | O=C(O)CN1CCC(=C2c3ccccc3COc3ccccc32)CC1 |
| 72 to 73 | CCC(=O)NCCC1CCc2ccn3nccc3c21 (stereo not given) |
| 52 to 54 | COc1ccc(CCNC(=O)[C@@H](N)C(C)C)cc1OC |
| 247 | COc1ccc(-c2n[nH]c3c2Cc2ccccc2-3)cc1 |
| 168 to 174 | COc1ccc(C(=O)O)c(C(=O)O)c1 |
| 160 to 161 | CC(=O)N1CCN=C1Nc1cc(C)nn1-c1ccccc1C |
| 192 to 193 | CS(=O)(=O)N1CCN(c2ccc(N)cc2)CC1 |
| 179 to 180 | Cc1cn(C2CC(O)C(CNCc3ccc(Cl)cc3)O2)c(=O)[nH]c1=O (stereo not given) |
| 96 | CC(C)(C)c1c(Cl)nc(OCc2ccccc2)nc1OCc1ccccc1 |
| 184 to 186 | COCCc1nc2c(N)nc3ccc(CCC(=O)N(C)C)cc3c2n1CCCN1CCCC1=O |
| 193 to 195 | Fc1ccc2ncn3ncnc3c2c1 |
| 107 to 110 | CCOC(=O)C[C@@H]1C(=O)N(S(=O)(=O)c2ccc(OC)cc2)C=C[C@@H]1c1ccc(OC)cc1 |
| 101 to 103 | CCOC(=O)c1cnn(-c2cc(Cl)cc(Cl)c2)c1C#N |
| 202 to 204 | O=C1Nc2ccc(Cl)cc2C2(c3ccccc3)OCCCN12 (stereo not given) |
| 220 to 222 | CC1(C)CC(NC(=O)c2cc([N+](=O)[O-])cc([N+](=O)[O-])c2)CC(C)(C)N1 |

| melting point [°C] | Structure (SMILES) |
| --- | --- |
| 179 | CCO[C@@H]1C[C@@H]2CN(C(=O)[C@@H](NC(=O)[C@H](C)NC)C3CCC(F)(F)CC3)[C@H](C(=O)N[C@@H]3CCOc4ccccc43)CN2C1 |
| 124 to 127 | N#CC(c1ccccc1)c1cn[nH]c1 (racemic) |
| 114 to 115 | CCCCOc1c(N(C)C(=O)OC(C)(C)C)n(CC(C)(C)C)c(=O)c2ccc(CC(N)=O)cc12 |
| 100 to 101 | CCc1cc(C)cc(CC)c1C1C(=O)C2CC(C3OCCCO3)CC2C1=O (stereo not given) |
| 148 to 150 | CC(C)(C)c1cc(C(C)(C)C)c2oc(-c3cccc([N+](=O)[O-])c3O)nc2c1 |
| 87 to 90 | CCOC(=O)CC1(c2ccc(Cl)c(Cl)c2)CNC(=O)C1 (stereo not given) |
| 103 to 105 | CCC(CNC(=O)c1cc(C#N)c(Cl)cc1OC)NC(C)C (stereo not given) |
| 119 to 120 | Cc1ccc(C(=O)c2cc(CN(C)C)c(O)c(C(C)(C)C)c2)s1 |
| 278 to 279 | CC1(C)Oc2c(cc(Cl)c3oc(C(=O)O)cc(=O)c23)-c2ccc([N+](=O)[O-])cc21 |
| 252 to 253 | CC(=O)NC1CN(C)S(=O)(=O)c2sc(S(N)(=O)=O)cc21 (stereo not given) |
| 229 | COc1ccc(Cn2c(=O)c3ccc4ccccc4c3c3c4ccccc4ccc32)cc1 |
| 334 to 336 | Cc1c(-c2ccccc2Cl)sc2nc(N)[nH]c(=O)c12 |
| 197 to 199 | CCOC(=O)c1cc2cccc(O)c2[nH]1 |
| 189 to 190 | N#Cc1cccc(OCCc2c[nH]cn2)c1 |
| 112 | COc1ccc(N(C)CCCOc2ccc3ccccc3c2)cc1 |
| 88 to 90 | COc1ccc(C(=O)c2ccc(OC)cc2F)c(C)c1 |
| 151 to 153 | CCOc1cccc(-c2ccc(C3=CCN(S(=O)(=O)CC(=O)NO)CC3)cc2C)c1 |
| 202 to 204 | Nc1c(C(=O)c2ccc(Cl)cc2)oc2ccccc12 |
| 269 to 271 | Cc1ccc(Cl)c(NS(=O)(=O)c2nc3nc(Cl)cc(Cl)n3n2)c1Cl |
| 173 to 175 | CSCc1cnc2c(NC(=O)c3c(Cl)cccc3Cl)cccc2c1Cl |
| 128 to 130 | Cc1ccc(Cc2cnc(NCCSCc3cc(CN(C)C)ccn3)[nH]c2=O)cn1 |
| 33 to 35 | CC(=O)Oc1ccc(C=O)cc1Cl |
| 185 | O=C(NC1CCCCC1)c1ccc(CO)cc1 |
| 158 to 159 | C=CCOc1cn(C)c2cc(F)ccc2c1=O |
| 212 to 219 | CCOC(=O)c1ccc(N=C(Nc2ccc(C(=O)OCC)cc2)c2ccc(C(C)(C)C)cc2)cc1 |

| melting point [°C] | Structure (SMILES) |
| --- | --- |
| 235 to 238 | CCC1(CC(=O)O)OCC(=O)c2c1[nH]c1ccccc21 (stereo not given) |
| 210 to 212 | CCC(C)(C)c1cc(-c2cc(F)cc(C=C3SC(N4CCOCC4)=NC3=O)c2)ccc1O |
| 247 to 252 | O=c1c2c(Cc3ccccc3OC(F)(F)F)n[nH]c2c2cccnc2n1-c1cccc(C(F)(F)F)c1 |
| 66 to 67 | O=C(OCCCCCCc1ccc(OCc2ccc(Cl)cc2)cc1)c1cccnc1 |
| 99 to 101 | CCCCCCCC(=O)NC(=O)OCc1nc(C(C)C)c(Sc2cc(Cl)cc(Cl)c2)n1CC |
| 84 to 84.5 | CCCCCOc1ccc(CC(C)C(=O)Oc2ccc(-c3ccc(CCC)cc3)cc2)cc1 (stereo not given) |
| 117 to 120 | O=C1NC(=O)C2(c3cc(Oc4ccc(O)cc4)c(Cl)cc3F)CCCCC12 (stereo not given) |
| 225 to 228 | CC(=O)ONC(=N)c1ccc(NC(=O)CCCC(=O)Nc2ccc(C(=N)NOC(C)=O)cc2)cc1 |
| 76 | CCOc1ccccc1C=[N+]([O-])C1CCC1 |
| 159 to 161 | CCOC(=O)C1CCN(c2nc(C)nc3c2C(C)C(=O)N3c2c(C)cc(Br)cc2C)CC1 (stereo not given) |
| 112 to 114 | CC(C)N(CCCC(=NNC(N)=S)c1ccccc1)C(=O)C1CCCCC1 |
| 167 to 169 | Cc1cc2[nH]cc(CSCC(=O)N3CC=C(c4ccccc4)CC3)c2cc1C |
| 218 to 219 | CC(C)C(=O)Nc1nn(C)c2c1sc1c(Cl)cccc12 |
| 85 | COc1cccc(N(C)C(=O)c2ncc(-c3cccc(C)c3)s2)c1 |
| 110 to 111 | CCCCCCCCc1nc2c(N)nc3ccccc3c2n1CCOCc1ccccc1 |
| 238 | CC(=O)NC[C@H]1CN(c2ccc(-n3cc(-c4ccc(Cl)cc4)cn3)c(F)c2)C(=O)O1 |
| 255 | O=c1nc(-c2cccc(Cl)c2)c2cc(C(c3ccc(Cl)cc3)n3ccnc3)ccc2[nH]1 (stereo not given) |
| 85 to 87 | Cc1cc(Cl)ccc1C(=O)NN(CCF)CCF |
| 31 to 32 | N#CCc1cc(Cl)cc(Cl)c1 |
| 109 to 110 | COC(=O)Cn1c(=O)c2ccccc2n(CCCN2CCC(OC(c3ccccc3)c3ccccc3)CC2)c1=O |
| 214 to 216 | CNc1cc(F)ccc1C(=O)Cc1nnn[nH]1 |
| 99 to 101 | Cc1cc(NCc2ccc(Cl)cc2)nc(SCC#N)n1 |

| Structure (SMILES) | melting point [°C] |
| --- | --- |
| CCN(Cc1ccc(Cl)nc1)C(=NC)C(=Cc1ccco1)[N+](=O)[O-] | 155 to 156 |
| CCC(=O)N(Cc1cnc(Cl)s1)C(=N[N+](=O)[O-])NC | 89 to 90 |
| CCCCCn1c(C)c(C(=O)c2ccc(Br)c3ccccc23)c2cccc(OC)c21 | 114 |
